Test results from PubChem BioAssay (NCI).
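The concentration for 50% growth inhibition is given as GI50. At the TGI there is no net growth.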

How the values were obtained:
Experiment in all cases: growth of human tumour cells (NCI), 384-well format
[1] = tested on: T-47D breast
[2] = tested on: RPMI-8226 leukemia
[3] = tested on: NCI-H226 lung
[4] = tested on: A498 renal
[5] = tested on: UACC-257 melanoma
[6] = tested on: KM12 colon
[7] = tested on: SF-295 CNS
[8] = tested on: CAKI-1 renal
[9] = tested on: SK-MEL-5 melanoma
[10] = tested on: SF-539 CNS
[11] = tested on: SF-268 CNS
[12] = tested on: TK-10 renal
[13] = tested on: U251 glioblastoma
[14] = tested on: MDA-MB-435 melanoma
[15] = tested on: HCT-15 colon
[16] = tested on: MDA-MB-231 breast
[17] = tested on: RXF 393 renal
[18] = tested on: ACHN renal
[19] = tested on: M14 melanoma
[20] = tested on: MDA-MB-468 breast
[21] = tested on: MOLT-4 leukemia
[22] = tested on: HL-60(TB) leukemia
[23] = tested on: HS 578T breast
[24] = tested on: LOX IMVI melanoma
[25] = tested on: SN12C renal
[26] = tested on: HCT-116 colon
[27] = tested on: UACC-62 melanoma
[28] = tested on: HCC-2998 colon
[29] = tested on: HOP-92 NSCLC
[30] = tested on: MCF7 breast
[31] = tested on: SNB-75 CNS
[32] = tested on: NCI-H23 lung
[33] = tested on: COLO 205 colon
[34] = tested on: OVCAR-5 ovarian
[35] = tested on: OVCAR-4 ovarian
[36] = tested on: EKVX NSCLC
[37] = tested on: IGROV1 ovarian
[38] = tested on: SK-OV-3 ovarian
[39] = tested on: NCI-H522 lung
[40] = tested on: SNB-19 CNS
[41] = tested on: SK-MEL-28 melanoma
[42] = tested on: OVCAR-8 ovarian
[43] = tested on: A549 NSCLC
[44] = tested on: HOP-62 NSCLC
[45] = tested on: SR leukemia
[46] = tested on: HT29 colon
[47] = tested on: MALME-3M melanoma
[48] = tested on: DU-145 prostate
[49] = tested on: NCI-H322M lung
[50] = tested on: PC-3 prostate
[51] = tested on: OVCAR-3 ovarian
[52] = tested on: BT-549 breast
[53] = tested on: NCI-H460 NSCLC
[54] = tested on: NCI/ADR-RES ovarian

## CN(C)Cc1c(C(=O)NCCOc2ccc(C(=O)NO)cc2)oc2ccccc12
[1]
  GI50: 0.136 µM
  TGI: 0.3 µM
[2]
  GI50: 0.0119 µM
  TGI: 0.0262 µM
[3]
  GI50: 0.376 µM
  TGI: 1.6 µM
[4]
  GI50: 0.187 µM
  TGI: 0.658 µM
[5]
  GI50: 0.0432 µM
  TGI: 0.194 µM
[6]
  GI50: 0.311 µM
  TGI: 1.7 µM
[7]
  GI50: 0.161 µM
  TGI: 0.335 µM
[8]
  GI50: 0.316 µM
  TGI: 1.1 µM
[9]
  GI50: 0.132 µM
  TGI: 0.278 µM
[10]
  GI50: 0.285 µM
  TGI: 2.1 µM
[11]
  GI50: 0.197 µM
  TGI: 0.604 µM
[12]
  GI50: 0.184 µM
  TGI: 0.475 µM
[13]
  GI50: 0.155 µM
  TGI: 0.332 µM
[14]
  GI50: 0.201 µM
  TGI: 0.401 µM
[15]
  GI50: 0.48 µM
  TGI: 2.01 µM
[16]
  GI50: 0.248 µM
  TGI: 0.811 µM
[17]
  GI50: 0.291 µM
  TGI: 1.13 µM
[18]
  GI50: 0.221 µM
  TGI: 0.578 µM
[19]
  GI50: 0.25 µM
  TGI: 1.08 µM
[20]
  GI50: 0.13 µM
  TGI: 0.457 µM
[21]
  GI50: 0.0422 µM
  TGI: 0.143 µM
[22]
  GI50: 0.0569 µM
  TGI: 0.148 µM
[23]
  GI50: 0.145 µM
  TGI: 0.385 µM
[24]
  GI50: 0.17 µM
  TGI: 0.32 µM
[25]
  GI50: 0.13 µM
  TGI: 0.392 µM
[26]
  GI50: 0.0923 µM
  TGI: 0.479 µM
[27]
  GI50: 0.112 µM
  TGI: 0.256 µM
[28]
  GI50: 0.109 µM
  TGI: 0.362 µM
[29]
  GI50: 0.31 µM
  TGI: 1.33 µM
[30]
  GI50: 0.133 µM
  TGI: 0.51 µM
[31]
  GI50: 0.31 µM
  TGI: 2.82 µM
[32]
  GI50: 0.267 µM
  TGI: 1.37 µM
[33]
  GI50: 0.158 µM
  TGI: 0.319 µM
[34]
  GI50: 0.0577 µM
  TGI: 0.212 µM
[35]
  GI50: 0.213 µM
  TGI: 0.495 µM
[36]
  GI50: 0.403 µM
  TGI: 3.11 µM
[37]
  GI50: 0.111 µM
  TGI: 0.324 µM
[38]
  GI50: 0.175 µM
  TGI: 0.745 µM
[39]
  GI50: 0.0713 µM
  TGI: 0.571 µM
[40]
  GI50: 0.322 µM
  TGI: 1.12 µM
[41]
  GI50: 0.171 µM
  TGI: 0.561 µM
[42]
  GI50: 0.0469 µM
  TGI: 1.13 µM
[43]
  GI50: 0.313 µM
  TGI: 1.24 µM
[44]
  GI50: 0.17 µM
  TGI: 0.69 µM
[45]
  GI50: 0.0317 µM
  TGI: 0.136 µM
[46]
  GI50: 0.219 µM
  TGI: 0.943 µM
[47]
  GI50: 0.0876 µM
  TGI: 0.33 µM
[48]
  GI50: 0.118 µM
  TGI: 0.32 µM
[49]
  GI50: 0.18 µM
  TGI: 0.713 µM
[50]
  GI50: 0.165 µM
  TGI: 0.439 µM
[51]
  GI50: 0.176 µM
  TGI: 0.626 µM
[52]
  GI50: 0.264 µM
  TGI: 1.35 µM
[53]
  GI50: 0.135 µM
  TGI: 1.04 µM
[54]
  GI50: 0.387 µM
  TGI: 1.84 µM
